Paper PMC3608651, “A Broad Profile of Co-Dominant Epitopes Shapes the Peripheral Mycobacterium tuberculosis Specific CD8+ T-Cell Immune Response in South African Patients with Active Tuberculosis” (PLoS ONE, 2013)
Where two headings read alike, the source gives them in different places.

Experiments:
Assay type in all cases: binding
HLA-A*02:01 = HLA-A*02:01 (Homo sapiens, UniProt P04439, D140Y/D185E/D98H/E176V/E277Q/G131W/G231S/I119V/I121R/I166T/I218V/L300P/L318F/N151K/N90K/P208A/P217A/Q86G/Q94H/R138H/R169H/T345S); details: plate-bound monomer 0.5 µg/ml, duplicated experiments, positive binder >40%
HLA-A*24:02 = HLA-A*24:02 (Homo sapiens, UniProt P04439, D101N/D140Y/D185E/E176V/E190D/F33S/G103R/G107R/I119L/I121M/I306V/K335N/L105A/L180Q/L300P/N151K/N90K/Q86E/Q94H/R106L/R138H/R89G/T104I/T345S/V100E/W191G/Y123F); details: duplicated experiments, positive binder >40%
HLA-A*30:01 = HLA-A*30:01 (Homo sapiens, UniProt P04439, D140H/D185E/E176W/F33S/G80R/H175R/K168Q/R138E/R41S); details: duplicated experiments, positive binder >40%
HLA-A*30:02 [1] = biological target: T1, HLA-A*30:02 (Homo sapiens, UniProt P04439, D101N/D140H/D185E/E176R/F33S/G80R/H175R/K168Q/Q94H/R138E/R41S/V100E); details: duplicated experiments, positive binder >40%
HLA-A*30:02 [2] = biological target: T1, HLA-A*30:02
HLA-A*30:02 [3] = biological target: T1, HLA-A*30:02; details: time points 0-8 h
HLA-A*68:01 [4] = biological target: T2, HLA-A*68:01 (Homo sapiens, UniProt P04439, A269V/D185E/E176V/E277Q/E87N/F33Y/G231S/I121M/I166T/I218V/L180W/L300P/L318F/N151K/P208A/P217A/Q86R/R169H/T345S); details: duplicated experiments, positive binder >40%
HLA-A*68:01 [5] = biological target: T2, HLA-A*68:01
HLA-A*68:01 [6] = biological target: T2, HLA-A*68:01; details: time points 0-8 h
HLA-B*07:02 = HLA-B*07:02 (Homo sapiens, UniProt P01889); details: percent relative the binding of positive control peptide […]; duplicated experiments; positive binder >40%
HLA-B*58:01 [7] = biological target: T3, HLA-B*58:01 (Homo sapiens, UniProt P01889, A329T/C349S/D201E/D98Y/E176V/E187L/E204Q/E69T/G107R/I218V/I90N/K202T/L105A/L119I/N104I/N87E/Q89R/Q94S/R106L/R155S/R180L/R86G/S101N/S121R/S35A/S48A/T118I/V127L/V306I/V36M/Y140S/Y91M); details: duplicated experiments, positive binder >40%
HLA-C*07:01 = HLA-C*07:01 (Homo sapiens, UniProt P10321, K90N/S123Y); details: duplicated experiments, positive binder >40%
HLA-B*58:01 [8] = biological target: T3, HLA-B*58:01
HLA-B*58:01 [9] = biological target: T3, HLA-B*58:01; details: time points 0-8 h
[10] = percent relative the binding of positive control peptide […]
[11] = percent relative the binding of positive control peptide FLPSDFFPSV
[12] = percent relative the binding of positive control peptide RYLKDQQLL
[13] = percent relative the binding of positive control peptide KTKDIVNGL
[14] = percent relative the binding of positive control peptide KIQNFRVYY
[15] = percent relative the binding of positive control peptide KTGGPIYKR
[16] = peptide titrated 10−4 to 10−9 M
[17] = percent relative the binding of positive control peptide IAMESIVIW
[18] = percent relative the binding of positive control peptide KYFDEHYEY

Substance	Bind A*02:01 (HLA-A*02:01; [10]) [%]	Bind A*24:02 (HLA-A*24:02; [10]) [%]	Bind A*30:01 (HLA-A*30:01; [10]) [%]	Bind A*30:02 (HLA-A*30:02 [1]; [10]) [%]	Bind A*68:01 (HLA-A*68:01 [4]; [10]) [%]	Aff A*68:01 (ED50) (HLA-A*68:01 [5])	O-rate A*68:01 (t1/2) (HLA-A*68:01 [6]) [h]	Bind B*07:02 (HLA-B*07:02) [%]	Bind B*58:01 (HLA-B*58:01 [7]; [10]) [%]	Bind C*07:01 (HLA-C*07:01; [10]) [%]	also measured
AVYLLDGLR	24	8	1	115	114	2E -07 M	1.1	0	0	4	Aff A*30:02 (ED50) (HLA-A*30:02 [2]): 0.2 µM; O-rate A*30:02 (t1/2) (HLA-A*30:02 [3]): 1.2 h
EAAASAIQG [Rv3875_12–20]							0.8	5			Bind A*02:01 (HLA-A*02:01; [11]): 0%; Bind A*24:02 (HLA-A*24:02; [12]): 0%; Bind A*30:01 (HLA-A*30:01; [13]): 0%; Bind A*30:02 (HLA-A*30:02 [1]; [14]): 0%; Bind A*68:01 (HLA-A*68:01 [4]; [15]): 59%; Aff A*68:01 (ED50) (HLA-A*68:01 [5]; [16]): 8e-07 M; Bind B*58:01 (HLA-B*58:01 [7]; [17]): 0%; Bind C*07:01 (HLA-C*07:01; [18]): 0%
LPQW LSANR	6	26	29	0	167	6E -08 M	4.1	31	0	0	
SSFYSDWYS	53	0	0	72	103	1e-07 M	0.1	0	0	1	
ITYQAWQAQ [Rv0288_49–57]					56	9e-06 M	1.9		78	0	Aff B*58:01 (ED50) (HLA-B*58:01 [8]): 0.2 µM; O-rate B*58:01 (t1/2) (HLA-B*58:01 [9]): 0.5 h
EAYQGVQQK [Rv3875_49–57]							7.5	10			Bind A*02:01 (HLA-A*02:01; [11]): 0%; Bind A*24:02 (HLA-A*24:02; [12]): 0%; Bind A*30:01 (HLA-A*30:01; [13]): 0%; Bind A*30:02 (HLA-A*30:02 [1]; [14]): 0%; Bind A*68:01 (HLA-A*68:01 [4]; [15]): 74%; Aff A*68:01 (ED50) (HLA-A*68:01 [5]; [16]): 4e-08 M; Bind B*58:01 (HLA-B*58:01 [7]; [17]): 0%; Bind C*07:01 (HLA-C*07:01; [18]): 0%
AVFNFPPNG	69	23	21	101	81	8E -09 M	0.2	0	33	1	Aff A*30:02 (ED50) (HLA-A*30:02 [2]): 3 µM; O-rate A*30:02 (t1/2) (HLA-A*30:02 [3]): 0.3 h
AMGDAGGYK	31	0	28	80	94	5e-07 M	3.2	8	0	0	Aff A*30:02 (ED50) (HLA-A*30:02 [2]): 0.7 µM; O-rate A*30:02 (t1/2) (HLA-A*30:02 [3]): 1.6 h
ETFLTSELP	25	2	4	0	103	7e-07 M	0.1	5	16	0	
QSSFYSDWY	0	0	0	90	82	1E -06 M	0.4	0	39	22	Aff A*30:02 (ED50) (HLA-A*30:02 [2]): 0.6 µM; O-rate A*30:02 (t1/2) (HLA-A*30:02 [3]): 2.2 h
EQAALQSAW [Rv0288_35–43]					47	1e-05 M	2.8		79	0	Aff B*58:01 (ED50) (HLA-B*58:01 [8]): 6 µM; O-rate B*58:01 (t1/2) (HLA-B*58:01 [9]): 0.8 h
WQGDTGITY [Rv0288_43–51]					61	1e-05 M	6.0		33	0	Aff B*58:01 (ED50) (HLA-B*58:01 [8]): 8 µM; O-rate B*58:01 (t1/2) (HLA-B*58:01 [9]): 1.8 h
RDTAEAAKW [Rv0288_86–94]					65	1e-05 M	4.3		45	0	Aff B*58:01 (ED50) (HLA-B*58:01 [8]): 5 µM; O-rate B*58:01 (t1/2) (HLA-B*58:01 [9]): 2.6 h
MAMMARDTA [Rv0288_81–89]					96	5e-06 M	2.0		23	19	
EANTMAMMA [Rv0288_77–85]					83	0.0007 M	1.9		0	3	
QAWQAQWNQ [Rv0288_52–60]					55	7e-06 M	3.0		45	0	Aff B*58:01 (ED50) (HLA-B*58:01 [8]): 4 µM; O-rate B*58:01 (t1/2) (HLA-B*58:01 [9]): 0.5 h
ANTMAMMAR [Rv0288_78–86]					147	3e-06 M	2.4		0	12	
WGAQLNAMK	7	0	0	67	153	3E -07 M	2.4	0	0	5	
DW YSPACGK	10	0	11	0	136	2E -07 M	0.6	0	0	0	
